Our source for the IC50 values is patent publication US7928139B2 (Amgen Inc., priority 2006, dated 2011).

The target in the test is HIF PHD2 (Homo sapiens, UniProt Q9GZT9). As to the kind of experiment: PHD2 inhibition assay (TR-FRET, VCB-Eu detection of hydroxylated P564-HIF1α peptide). The format is biochemical. To be noted: 2 nM PHD2, 100 nM P564-HIF1α peptide, 0.25 μM 2-oxoglutarate, 100 μM FeCl2, 2 mM ascorbic acid. The procedure: Inhibition of HIF PHD2 activity was quantified utilizing the TR-FRET technology. HIF PHD2 catalyzes a hydroxyl modification on the proline residue of the P564-HIF1α peptide substrate (Biotin-DLEMLAPYIPMDDDFQL (SEQ ID NO: 7)) resulting in recognition and binding of the europylated Von Hippel-Lindau protein (pVHL), elongin B and elongin C heterotrimeric (VCB-Eu) complex.
The PHD2 inhibition assay was executed by addition of freshly dissolved FeCl2 to 178.57 μM (100 μM final concentration) in PHD2 Reaction Buffer containing 30 mM MES, pH 6, 10 mM NaCl, 0.25% Brij-35, 0.01% BSA, and 1% DMSO. 28 μL of the iron solution and 2 μL of inhibitor compounds serially diluted in 100% DMSO (5% DMSO final) were added to black polypropylene 96-well microtiter plates. To that, 10 μL of 10 nM PHD2 (2 nM final) was added to all wells of the plate except for the 8 wells of column 12 (LO control), and allowed to incubate at room temperature on the shaker for one hour. Column 6 was the HI control containing PHD2 enzyme and 5% DMSO vehicle, but no inhibitor compound. To initiate the PHD2 enzymatic reaction, 10 μL of a solution containing 500 nM P564-HIF1α peptide (100 nM final), 10 mM ascorbic acid (2 mM final), and 1.25 μM 2-oxoglutarate (α-ketoglutarate; 0.25 μM final) in PHD2 Reaction Buffer was added to all wells of the plate and allowed to incubate on the shaker at room temperature for one hour.
The reaction was terminated by addition of 25 μL TR-FRET Buffer (50 mM TRIS-HCl, pH 9, 100 mM NaCl, 0.05% BSA, and 0.5% Tween-20) containing 150 mM succinate (product inhibitor; 50 mM final), 75 nM streptavidin-APC (25 nM final), and 7.5 nM VCB-Eu (2.5 nM final). The TR-FRET detection reagents were placed on a shaker for 1 hour to reach binding equilibrium before reading on the Discovery platform (PerkinElmer). Europium is excited at 315 nm and phosphoresces at 615 nm with a large Stoke's shift. APC, in turn, emits at 655 nm upon excitation at 615 nm. The TR-FRET signal is measured as the ratio of the APC 655 nm signal divided by the internal europium reference 615 nm emission signal.
The POC (percentage of control) was determined by comparing the signal from hydroxylated peptide substrate in the enzyme reaction containing inhibitor compound with that from PHD2 enzyme with DMSO vehicle alone (HI control), and no enzyme (LO control). POC was calculated using the formula: % control (POC)=(cpd−average LO)/(average HI−average LO)*100. Data (consisting of POC and inhibitor concentration in μM) was fitted to a 4-parameter equation (y=A+((B−A)/(1+((x/C)^D))), where A is the minimum y (POC) value, B is the maximum y (POC), C is the x (cpd concentration) at the point of inflection and D is the slope factor) using a Levenburg-Marquardt non-linear regression algorithm.
On the technique in general: TR-FRET usually uses a lanthanide donor and a delayed reading to cut background.

Sequence of HIF PHD2 (Q9GZT9 whole entry): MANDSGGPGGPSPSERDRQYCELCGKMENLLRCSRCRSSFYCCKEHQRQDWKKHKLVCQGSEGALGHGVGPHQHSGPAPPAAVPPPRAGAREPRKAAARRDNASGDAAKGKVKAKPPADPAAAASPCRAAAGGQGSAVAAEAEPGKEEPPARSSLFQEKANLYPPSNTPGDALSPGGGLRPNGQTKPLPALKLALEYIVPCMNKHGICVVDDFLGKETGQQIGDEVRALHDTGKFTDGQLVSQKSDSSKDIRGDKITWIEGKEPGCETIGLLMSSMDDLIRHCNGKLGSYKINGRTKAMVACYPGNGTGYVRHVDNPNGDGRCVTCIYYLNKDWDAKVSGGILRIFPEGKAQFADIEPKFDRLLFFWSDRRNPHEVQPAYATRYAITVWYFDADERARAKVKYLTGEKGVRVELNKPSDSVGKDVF

One may read the IC50 as the concentration that gives 50% inhibition. Lower therefore signals inhibition by little substance. Consider `CC1(C)C(=O)C(C(=O)CCC(=O)O)=C(O)c2ccc(Cl)cc21` [Example 127, 4-(6-chloro-1-hydroxy-4,4-dimethyl-3-oxo-3,4-dihydronaphthalen-2-yl)-4-oxobutanoic acid], for which the 50% inhibitory concentration (IC50) lay within 100 to 500 nM.
As for `CC1(C)C(=O)C(C(=O)NCC(=O)O)=C(O)c2c(C(F)(F)F)cccc21` [Example 26, N-((4-Hydroxy-1,1-dimethyl-2-oxo-5-(trifluoromethyl)-naphthalen-3-yl)carbonyl)glycine], the figure is 100 to 500 nM; as for `O=C(O)CNC(=O)C1=C(O)c2cc(Cl)ccc2C2(CCCCC2)C1=O` [Example 60, N-((6′-Chloro-4′-hydroxy-2′-oxo-spiro[cyclohexane-1,1′-naphthalen]-3′-yl)carbonyl)glycine], 100 to 500 nM.
As for `CC1(C)C(=O)C(C(=O)NCC(=O)O)=C(O)c2ccncc21` [Example 105, 2-(5-Hydroxy-8,8-dimethyl-7-oxo-7,8-dihydroisoquinoline-6-carboxamido)acetic acid], the figure is < 100 nM; as for `O=C(O)CNC(=O)C1=C(O)c2ccc(F)cc2C2(CCOCC2)C1=O` [Example 44, N-((7-Fluoro-4-hydroxy-2-oxo-2′,3′,5′,6′-tetrahydro-spiro[naphthalene-1,4′-pyran]-3-yl)carbonyl)glycine], < 100 nM.
As for `CC1(C#N)C(=O)C(C(=O)NCC(=O)O)=C(O)c2ccc(Br)cc21` (single isomer, unassigned) [Example 139], the IC50 was < 100 nM.
As to `CC1(C)C(=O)C(C(=O)NCC(=O)O)=C(O)c2ccc(Cl)cc21` [Example 48, N-((7-Chloro-4-hydroxy-1,1-dimethyl-2-oxo-naphthalen-3-yl)carbonyl)glycine], the half-inhibitory concentration (IC50) was < 100 nM.
As for `O=C(O)CNC(=O)C1=C(O)c2cc(Cl)ccc2[C@]2(CCCO2)C1=O` [Example 74, N-(((2R)-6′-Chloro-4′-hydroxy-2′-oxo-4,5-dihydro-spiro[furan-2,1′-naphthalen]-3′-yl)carbonyl)glycine], the figure is 100 to 500 nM; as for `O=C(O)CNC(=O)C1=C(O)c2cc(Cl)ccc2C2(CCCOC2)C1=O` (stereo not drawn) [Example 75, N-((6-Chloro-4-hydroxy-2-oxo-5′,6′-dihydro-spiro[naphthalene-1,3′-pyran]-3-yl)carbonyl)glycine], < 100 nM; as for `CN(C)c1cccc(-c2ccc3c(c2)C(O)=C(C(=O)NCC(=O)O)C(=O)C3(C)C)c1` [Example 39, N-((6-(3-(Dimethylamino)phenyl)-4-hydroxy-1,1-dimethyl-2-oxo-naphthalen-3-yl)carbonyl)glycine], 100 to 500 nM.
As for `O=C(O)CNC(=O)C1=C(O)c2cc(Cl)ccc2C2(CCC2)C1=O` [Example 93, N-((6′-Chloro-4′-hydroxy-2′-oxo-spiro[cyclobutane-1,1′-naphthalen]-3′-yl)carbonyl)glycine], the figure is < 100 nM.
On to `COCCCc1ccc2c(c1)C(C)(C)C(=O)C(C(=O)NCC(=O)O)=C2O` [Example 99, N-((4-Hydroxy-1,1-dimethyl-7-(3-(methyloxy)propyl)-2-oxo-naphthalen-3-yl)carbonyl)glycine], for which the half-maximal inhibitory concentration (IC50) was < 100 nM.
As for `COc1ccc2c(c1F)C(C)(C)C(=O)C(C(=O)NCC(=O)O)=C2O` [Example 22, N-((8-Fluoro-4-hydroxy-1,1-dimethyl-7-(methyloxy)-2-oxo-naphthalen-3-yl)carbonyl)glycine], the IC50 was 100 to 500 nM.
The figure for `CC1(C)C(=O)C(C(=O)NCC(=O)O)=C(O)c2cc(F)c(F)cc21` [Example 59, N-((6,7-Difluoro-4-hydroxy-1,1-dimethyl-2-oxo-naphthalen-3-yl)carbonyl)glycine] is < 100 nM; for `CC1(C)C(=O)C(C(=O)NCC(=O)O)=C(O)c2cc(C(F)(F)F)ccc21` [Example 4, N-((4-Hydroxy-1,1-dimethyl-2-oxo-6-(trifluoromethyl)-naphthalen-3-yl)carbonyl)glycine] it is < 100 nM.
As for `CC1(C)C(=O)C(C(=O)NCC(=O)O)=C(O)c2cccnc21` [Example 103, 2-(5-Hydroxy-8,8-dimethyl-7-oxo-7,8-dihydroquinoline-6-carboxamido)acetic acid], the figure is < 100 nM; as for `CC1(C)C(=O)C(C(=O)NCC(=O)O)=C(O)c2ccc(Cl)c(F)c21` [Example 90, N-((7-Chloro-8-fluoro-4-hydroxy-1,1-dimethyl-2-oxo-naphthalen-3-yl)carbonyl)glycine], < 100 nM; as for `CC1(C#N)C(=O)C(C(=O)NCC(=O)O)=C(O)c2cc(F)c(F)cc21` (stereo not drawn) [Example 133, 2-(1-cyano-6,7-difluoro-4-hydroxy-1-methyl-2-oxo-1,2-dihydronaphthalene-3-carboxamido) acetic acid], < 100 nM.
The figure for `CC1(C)C(=O)C(C(=O)CCC(=O)O)=C(O)c2ccc(F)c(F)c21` [Example 126, 4-(5,6-difluoro-1-hydroxy-4,4-dimethyl-3-oxo-3,4-dihydronaphthalen-2-yl)-4-oxobutanoic acid] is 100 to 500 nM.
As for `CC(CC(=O)O)C(=O)C1=C(O)c2cc(Cl)ccc2C2(CCOCC2)C1=O` (stereo not drawn) [Example 121, 4-(6-Chloro-2-hydroxy-4-oxo-2′,3′,5′,6′-tetrahydro-4H-spiro[naphthalene-1,4′-pyran]-3-yl)-3-methyl-4-oxobutanoic acid], the IC50 fell in the range of 1000 to 10000 nM.
On to `CC1(C)C(=O)C(C(=O)NCC(=O)O)=C(O)c2cccc(Cl)c21` [Example 89, N-((8-Chloro-4-hydroxy-1,1-dimethyl-2-oxo-naphthalen-3-yl)carbonyl)glycine], for which the IC50 was < 100 nM.
As for `CC1(C#N)C(=O)C(C(=O)NCC(=O)O)=C(O)c2cc(F)ccc21` (stereo not drawn) [Example 131, 2-(1-cyano-6-fluoro-4-hydroxy-1-methyl-2-oxo-1,2-dihydronaphthalene-3-carboxamido) acetic acid], the figure is < 100 nM.
The figure for `O=C(O)CNC(=O)C1=C(O)c2cc(-c3ccccc3)ccc2C2(CCCC2)C1=O` [Example 67, N-((4′-Hydroxy-2′-oxo-6′-phenyl-spiro[cyclopentane-1,1′-naphthalen]-3′-yl)carbonyl)glycine] is 1000 to 10000 nM; for `CC1(C)C(=O)C(C(=O)NCC(=O)O)=C(O)c2ccc(C#N)cc21` [Example 41, N-((7-Cyano-4-hydroxy-1,1-dimethyl-2-oxo-naphthalen-3-yl)carbonyl)glycine] it is < 100 nM; for `CN(C)c1ccccc1-c1ccc2c(c1)C(O)=C(C(=O)NCC(=O)O)C(=O)C2(C)C` [Example 35, N-((6-(2-(Dimethylamino)phenyl)-4-hydroxy-1,1-dimethyl-2-oxo-naphthalen-3-yl)carbonyl)glycine] it is 100 to 500 nM.
The figure for `C[C@]1(C#N)C(=O)C(C(=O)NCC(=O)O)=C(O)c2cc(Cl)ccc21` [Example 86, N-(((1S)-6-Chloro-1-cyano-4-hydroxy-1-methyl-2-oxo-naphthalen-3-yl)carbonyl)glycine] is < 100 nM; for `C[C@@]1(C#N)C(=O)C(C(=O)NCC(=O)O)=C(O)c2cc(F)ccc21` (single isomer, unassigned) [Example 135, (R)-2-(1-cyano-6-fluoro-4-hydroxy-1-methyl-2-oxo-1,2-dihydronaphthalene-3-carboxamido) acetic acid or (S)-2-(1-cyano-6-fluoro-4-hydroxy-1-methyl-2-oxo-1,2-dihydronaphthalene-3-carboxamido) acetic acid] it is < 100 nM; for `O=C(O)CNC(=O)C1=C(O)c2ccc(Cl)cc2C2(CCOCC2)C1=O` [Example 46, N-((7-Chloro-4-hydroxy-2-oxo-2′,3′,5′,6′-tetrahydro-spiro[naphthalene-1,4′-pyran]-3-yl)carbonyl)glycine] it is < 100 nM.
For the compound `O=C(O)CNC(=O)C1=C(O)c2ccccc2C2(CCOCC2)C1=O` [Example 94, N-((4-hydroxy-2-oxo-2′,3′,5′,6′-tetrahydro-spiro[naphthalene-1,4′-pyran]-3-yl)carbonyl)glycine], the half-inhibitory concentration (IC50) is < 100 nM.
The figure for `CC1(C)C(=O)C(C(=O)NCC(=O)O)=C(O)c2cc(-c3cncc(F)c3)ccc21` [Example 9, N-((6-(5-Fluoro-3-pyridinyl)-4-hydroxy-1,1-dimethyl-2-oxo-naphthalen-3-yl)carbonyl)glycine] is 1000 to 10000 nM.
